Source: publication PMC3907359, “Investigation of Acetylcholine Receptor Diversity in a Nematode Parasite Leads to Characterization of Tribendimidine- and Derquantel-Sensitive nAChRs” (PLoS Pathogens, 2014)

How the values were obtained:
Format in all cases: cell-based
[1] = target: T1, Ode(29-63-8), ACh-nAChR (Oesophagostomum dentatum, UniProt E5KIX9+L7MMZ7+V5J2B2); test: two-electrode voltage clamp, Xenopus oocytes, agonist dose-response
T1 construct: full-length cDNAs (UNC-29 497 aa, UNC-63 507 aa, ACR-8 538 aa), pTB-207, cRNA 1:1:1 in Xenopus laevis oocytes; heteropentamer, stoichiometry undetermined; with H. contortus chaperones RIC-3, UNC-50, UNC-74
T1 sequence (V5J2B2 21-497): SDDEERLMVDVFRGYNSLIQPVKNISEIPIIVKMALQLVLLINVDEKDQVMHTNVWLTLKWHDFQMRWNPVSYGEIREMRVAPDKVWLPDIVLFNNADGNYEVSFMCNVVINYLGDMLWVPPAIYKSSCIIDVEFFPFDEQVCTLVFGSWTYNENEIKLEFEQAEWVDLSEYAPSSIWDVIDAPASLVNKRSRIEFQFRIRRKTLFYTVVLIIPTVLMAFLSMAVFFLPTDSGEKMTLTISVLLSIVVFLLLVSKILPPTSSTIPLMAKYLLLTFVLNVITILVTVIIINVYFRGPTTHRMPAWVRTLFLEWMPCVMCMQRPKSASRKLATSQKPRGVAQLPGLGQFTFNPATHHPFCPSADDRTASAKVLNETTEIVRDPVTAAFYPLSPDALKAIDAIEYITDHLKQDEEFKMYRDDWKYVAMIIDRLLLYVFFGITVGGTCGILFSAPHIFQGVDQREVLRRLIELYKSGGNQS
T1 sequence (E5KIX9 22-507): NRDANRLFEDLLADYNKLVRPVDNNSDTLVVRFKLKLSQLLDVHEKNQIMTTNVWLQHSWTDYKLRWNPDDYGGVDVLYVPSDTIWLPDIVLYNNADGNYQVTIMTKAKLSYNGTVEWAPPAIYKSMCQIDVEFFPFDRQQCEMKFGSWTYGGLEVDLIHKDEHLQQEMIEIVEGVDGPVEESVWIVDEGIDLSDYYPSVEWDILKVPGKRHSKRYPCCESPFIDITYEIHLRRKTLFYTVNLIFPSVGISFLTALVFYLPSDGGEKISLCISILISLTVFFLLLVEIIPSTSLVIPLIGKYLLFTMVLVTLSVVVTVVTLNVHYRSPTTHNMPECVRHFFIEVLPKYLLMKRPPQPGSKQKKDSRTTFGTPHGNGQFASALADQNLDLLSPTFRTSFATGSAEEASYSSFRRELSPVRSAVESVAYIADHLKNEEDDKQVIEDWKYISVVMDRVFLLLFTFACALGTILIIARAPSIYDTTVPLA
T1 sequence (L7MMZ7 21-538): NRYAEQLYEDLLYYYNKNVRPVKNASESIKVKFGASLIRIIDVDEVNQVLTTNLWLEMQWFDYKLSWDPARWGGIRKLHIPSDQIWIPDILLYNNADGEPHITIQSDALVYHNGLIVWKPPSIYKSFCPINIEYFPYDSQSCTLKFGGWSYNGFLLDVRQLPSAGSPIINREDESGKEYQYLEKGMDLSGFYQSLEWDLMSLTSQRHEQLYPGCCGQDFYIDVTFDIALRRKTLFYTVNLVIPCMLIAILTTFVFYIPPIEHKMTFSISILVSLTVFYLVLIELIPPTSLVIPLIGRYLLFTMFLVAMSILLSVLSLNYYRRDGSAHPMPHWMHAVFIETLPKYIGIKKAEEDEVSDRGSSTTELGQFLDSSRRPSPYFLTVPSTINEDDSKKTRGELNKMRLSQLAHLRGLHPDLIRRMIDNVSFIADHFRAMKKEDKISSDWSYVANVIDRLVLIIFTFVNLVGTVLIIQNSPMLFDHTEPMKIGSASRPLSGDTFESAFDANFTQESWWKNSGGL
Description: two-electrode voltage clamp, Xenopus oocytes, agonist dose-response on Ode(29-63-8), ACh-nAChR

[2] = target: T2, Ode(29-63-8-38), Lev-nAChR (Oesophagostomum dentatum, UniProt E5KIX9+L7MMZ7+V5J2B2+V5J336); test: as above
T2 construct: full-length cDNAs (UNC-29 497 aa, UNC-63 507 aa, ACR-8 538 aa, UNC-38 507 aa), pTB-207, cRNA 1:1:1:1 in Xenopus laevis oocytes; heteropentamer, stoichiometry undetermined; with H. contortus chaperones RIC-3, UNC-50, UNC-74
T2 sequence (V5J336 21-507, one chain of several): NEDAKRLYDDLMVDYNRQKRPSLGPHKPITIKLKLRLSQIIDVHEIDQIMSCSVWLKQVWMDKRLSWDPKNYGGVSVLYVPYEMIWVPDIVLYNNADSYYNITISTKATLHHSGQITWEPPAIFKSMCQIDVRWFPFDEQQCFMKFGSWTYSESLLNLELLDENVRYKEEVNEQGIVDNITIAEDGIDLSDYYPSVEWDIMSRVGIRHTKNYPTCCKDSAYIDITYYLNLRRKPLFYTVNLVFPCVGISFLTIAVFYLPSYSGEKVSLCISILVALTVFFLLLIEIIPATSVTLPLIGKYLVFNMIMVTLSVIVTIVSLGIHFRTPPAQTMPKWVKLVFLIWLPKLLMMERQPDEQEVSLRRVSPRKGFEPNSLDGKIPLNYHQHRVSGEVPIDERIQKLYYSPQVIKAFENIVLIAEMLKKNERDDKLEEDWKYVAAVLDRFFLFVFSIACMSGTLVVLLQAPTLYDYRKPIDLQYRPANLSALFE
Description: two-electrode voltage clamp, Xenopus oocytes, agonist dose-response on Ode(29-63-8-38), Lev-nAChR

[3] = target: T1, Ode(29-63-8), ACh-nAChR; test: voltage clamp, oocytes; single concentration current; settings: agonist, 30 µM

| SMILES | EC50 [1] [µM] | EC50 [2] [µM] | voltage clamp, oocytes; single concentration current [3] |
| --- | --- | --- | --- |
| CC(=O)OCC[N+](C)(C)C [acetylcholine] | 3.5 ± 0.2 | 4.2 ± 0.2 |  |
| C[N+](C)(CCOc1ccccc1)Cc1ccccc1 [bephenium] |  |  | responses to all the agonists we tested, including bephenium and thenium |
